Tested on: 15 base pair dsDNA, double labeled (Alexa488 / Alexa568) (DNA, duplex) GGAGACCAGAGGCCT/AGGCCTCTGGTCTCC
Assay: FRET and fluorescence lifetime titration (donor 517 nm, acceptor 600 nm)
Conditions: 20 °C; 1 μM DNA; intercalation, qualitative; end-to-end distance ratio r1/r0 1.028; buffer not stated

- binding: yes
Structure (SMILES): [Ru+2].c1ccc(-c2ccccn2)nc1.c1ccc(-c2ccccn2)nc1.c1ccc2nc3c4cccnc4c4ncccc4c3nc2c1

Reference: paper PMC4399336 (2015)
